According to patent US20220313620A1, “COMPOSITION FOR PREVENTING AND TREATING TAUOPATHIES” (SERVICIO ANDALUZ DE SALUD, priority 2019, published 2022):

Assays:
[1] = tested on: Pyruvate Kinase Liver/RBC (Pklr); assay: Liver pyruvate kinase gene expression (qPCR) after acute oral gavage; assay type: in vivo; conditions: oral 100 mg/kg, adult male Wistar rats, FIG. 2D
Method: After 18 hours of fasting, D-Pinitol dissolved in water was administered acutely by gavage (100 mg/kg in a first study, and 500 mg/kg in a subsequent study). After administration, the animals were sacrificed in groups at different times (being time 0 the administration of D-Pinitol). For the first study (100 mg/kg), groups of animals were sacrificed at times: 10, 20, 30, 60, 120, 240 and 360 minutes after administration; for the second study (500 mg/kg), animals were sacrificed at times: 60, 120 and 240 minutes after administration. As a control group, a group was administered only with water (by gavage). […]
Total RNA was extracted from tissue portions of liver (100-300 mg) using the Trizol® method according to the manufacturer's instructions (GIBCO BRL Life Technologies). […] Total RNA was quantified using a spectrophotometer (Nanodrop 1000 Spectrophotometer, Thermo Scientific) to ensure A260/280 ratios of 1.8 to 2.0. […]
Real-time qPCR was performed following the criteria of the MIQE guidelines (Bustin, S. A. et al. The MIQE guidelines: minimum information for publication of quantitative real-time PCR experiments. Clin Chem. 55,611-622 (2009)). […] For all reference and target gene studies, two independent biologic samples of each experimental condition were evaluated in technical duplicates. […]

[2] = tested on: mTOR; assay: Hypothalamic mTOR phosphorylation (western blot) after acute oral gavage; assay type: in vivo; conditions: oral 500 mg/kg, adult male Wistar rats, hypothalamus, FIG. 3F
Method: After 18 hours of fasting, D-Pinitol dissolved in water was administered acutely by gavage (100 mg/kg in a first study, and 500 mg/kg in a subsequent study). After administration, the animals were sacrificed in groups at different times (being time 0 the administration of D-Pinitol). For the first study (100 mg/kg), groups of animals were sacrificed at times: 10, 20, 30, 60, 120, 240 and 360 minutes after administration; for the second study (500 mg/kg), animals were sacrificed at times: 60, 120 and 240 minutes after administration. As a control group, a group was administered only with water (by gavage). Animals were anesthetized with sodium pentobarbital (50 mg/Kg, i.p.), blood, brain and liver samples were collected. Blood was centrifuged (2100 g for 8 min, 4° C.) and the plasma kept for further analysis. Liver and brain samples were flash-frozen in liquid N2, then stored at −80° C. until further analysis. Brain extract. […] The expression of protein including mTOR (289 kDa) and Adaptin (100 kDa) were analysed by western blot. […] Bands were quantified by densitometric analysis using ImageJ software (Rasband, WS, Image), US National Institutes of Health, Bethesda, Md., USA).

COC1[C@@H](O)[C@@H](O)C(O)[C@H](O)[C@H]1O (stereo partly drawn) [DPIN, (1S,2S,4S,5R)-6-methoxycyclohexane-1,2,3,4,5-pentol]
expression of Pyruvate Kinase [1]: Inhibition
hypothalamic mTOR signaling through its phosphorylation [2]: activation
